The values that follow come from US7205299B2, “Indole derivatives having an apoptosis-inducing effect” (Zentaris GmbH, priority 2003, dated 2007).

The structures appear in SMILES notation. Values after ≈ are worked out from the molar mass of the structure shown.

In test [1] the test system is acute myeloid leukemia cell line LT12. The test can be described thus: XTT proliferation assay, LT12. It is filed as cell-based. To be noted: Rattus norvegicus. From the text:
(§1) For further characterization, substances 1, 2, 4 and 11 were investigated with regard to their effect on mulitdrug-resistance cell lines as compared with that on nonresistant wild-type cell lines.
(§2) The cell lines which were investigated are the murine cell line L1210, the acute myeloid leukemia cell line LT12 and the resistant lines L1210/mdr and LT12/mdr. The murine cell line P388 (methylcholanthrene-induced lymphoid neoplasm) and doxorubicin-resistant P388 were also included as test systems.
(§3) The test results are summarized in Table 2 below: • XTT proliferation assay, EC50 in μg/ml
(Tetrazolium dyes change colour on reduction, which living cells bring about.)

The subject of a further test is resistant line LT12/mdr. The test can be described thus: XTT proliferation assay, LT12/mdr. To be noted: Rattus norvegicus, LT12mdr. The format is cell-based.
Description: as §1, §2, §3

The next test deals with murine cell line L1210. Kind of test: XTT proliferation assay, L1210. It is filed as cell-based. To be noted: Mus musculus.
Description: as §1, §2, §3

Test [2] has as its system resistant line L1210/mdr (L1210VCR). Kind of test: XTT proliferation assay, L1210VCR. The format is cell-based, murine. To be noted: Mus musculus.
Description: as §1, §2, §3

For the next test, the system named is murine cell line P388. Kind of test: XTT proliferation assay, P388. The format is cell-based. To be noted: Mus musculus.
Description: as §1, §2, §3

The test system of test [3] is doxorubicin-resistant P388. The test can be described thus: XTT proliferation assay, P388ADR. It is filed as cell-based, murine. To be noted: Mus musculus.
Description: as §1, §2, §3

In test [4] the target is human DNA topoisomerase II (Homo sapiens, UniProt P11388). The test can be described thus: kDNA assay for testing topoisomerase II activity. It is filed as biochemical. To be noted: compound 1 at 100, 31.6 and 10 μM; reference compounds 100 μM. Here is the method:
In this assay, which was described by P. Arimondo (Anti-Cancer Drug Design 2000, 15(6), 413–421), kDNA is treated with human DNA topoisomerase II in the absence or presence of the test compounds. In the assay, compound 1 according to the invention was tested at three different concentrations (100, 31.6 and 10 μM). A positive control and the reference compounds m-amsacrine (m-amsa), paclitaxel (Taxol) and vincristine, with the concentration in each case being 100 μM, were used for comparison.
2 μL of 10× assay buffer, 1 μL of kDNA (200 ng), 0.5 μL of human topoisomerase II (1 unit) and 15.5 μL of H2O are added by pipette to 1 μL of initially introduced test substance (20 times concentrated in 100% DMSO) and the reagents are mixed.
The reaction assay samples are placed in a heating block which has been preheated to 37° C. and incubated at 37° C. for 10 min. The incubation is stopped after adding 4 μL of 5× Stop buffer and the substance is subsequently extracted with CIA. After that, 20 μL of the supernatant are loaded onto a 1% agarose gel containing 0.25 μg of ethidium bromide/mL and separated at 100 V for 1 h. Finally, the gel is photographed under UV excitation (see FIG. 1). The inhibition of the decatenation of kDNA is quantified using the GelPro® Analyzer Software (see FIG. 2).

A further test addresses human topoisomerase II (Homo sapiens, UniProt P11388). The test can be described thus: pRYG relaxation assay for testing topoisomerase II activity. It is filed as biochemical. To be noted: compound 1 at 100, 31.6 and 10 μM; reference compounds 316 and 100 μM. Here is the method: In the assay, the compound 1 according to the invention was tested at three different concentrations (100, 31.6 and 10 μM). The reference compounds m-amsacrine, paclitaxel (Taxol) and vincristine were used, at concentrations of 316 and 100 μM, for comparison.
2 μL of 10× assay buffer, 0.5 μL of pRYG DNA (125 ng), 0.5 μL of human topoisomerase II (1 unit) and 16 μL of H2O are added by pipette to 1 μL of initially introduced test substance (20 times concentrated in 100% DMSO) and the reagents are mixed. The reaction assay samples are placed in a heating block which has been preheated to 37° C. and incubated at 37° C. for 30 min. The incubation is stopped after adding 4 μL of 5× Stop buffer. After that, 10 μL of the assay sample are loaded onto a 1.2% agarose gel containing 0.25 μg of ethidium bromide/mL and separated at 100 V for 2.5 h. Finally, the gel is photographed under UV excitation (see FIG. 3). The inhibition of pRYG relaxation is quantified using the GelPro® Analyzer Software (see FIG. 4).

The next test has as its system KB/HeLa cells. The test can be described thus: Cell cycle analysis (G2/M arrest). To be noted: Homo sapiens, 24 hours, 37° C., read-out: EC50 (50% of cells in G2/M). It is filed as cell-based. On the procedure:
For the cell cycle analysis, KB/HeLa cells were treated with different concentrations of the test substances (0.1–1000 nM) at 37° C. for 24 hours.
The percentage of cells arrested in the G2/M phase of the cell cycle after having been treated with reference substances or selected test substances is shown in Table 4 below. The results were analyzed using special analytical software (ModFit™).

Test [5] relates to human cervical carcinoma cell line KB/HeLa. The test can be described thus: XTT proliferation assay, KB/HeLa. The format is cell-based. The text has this: (§4) The antiproliferative activity of substances 1, 2, 4, 9, 11, 12, 13 and 15 was investigated in a proliferation test performed on established tumor cell lines (D. A. Scuderio et al. Cancer Res. 1988, 48, 4827–4833). The test which is used determines the cellular dehydrogenase activity and makes it possible to determine cell viability and determine cell number indirectly. The cell lines which are used are the human cervical carcinoma cell line KB/HeLa (ATCC CCL17), the ovarian adenocarcinoma cell line SKOV-3 (ATCC HTB77), the human glioblastoma cell line SF-268 (NCI 503138) and the lung carcinoma cell line NCI-H460 (NCI 503473).

Test [6] concerns ovarian adenocarcinoma cell line SKOV-3. The test can be described thus: XTT proliferation assay, SKOV-3. The format is cell-based, human.
Description: as §4

The subject of test [7] is human glioblastoma cell line SF-268. The test can be described thus: XTT proliferation assay, SF-268. The format is cell-based.
Description: as §4

Test [8] has as its system lung carcinoma cell line NCI-H460. The test can be described thus: XTT proliferation assay, NCI-H460. The format is cell-based, human.
Description: as §4

For the next test, the target named is bovine tubulin (Bos taurus, UniProt P81947+Q6B856). Kind of test: Inhibition of tubulin polymerization. The format is biochemical. Particulars: summary of Table 3. On the procedure:
Substances 1, 4, 9, 11, 12, 13 and 15 were tested for their ability to inhibit the polymerization of bovine tubulin in an in-vitro test (D. M. Bollag et al. Cancer Res. 1995, 55, 2325–2333). This test uses-tubulin which has been purified by cycles of polymerization and depolymerization and which is caused to polymerize by adding GTP and heating it. Table 3 gives the EC50 values causing inhibition of the polymerization of tubulin containing 30% associated proteins (MPAs).

Sequence of bovine tubulin (P81947 whole entry): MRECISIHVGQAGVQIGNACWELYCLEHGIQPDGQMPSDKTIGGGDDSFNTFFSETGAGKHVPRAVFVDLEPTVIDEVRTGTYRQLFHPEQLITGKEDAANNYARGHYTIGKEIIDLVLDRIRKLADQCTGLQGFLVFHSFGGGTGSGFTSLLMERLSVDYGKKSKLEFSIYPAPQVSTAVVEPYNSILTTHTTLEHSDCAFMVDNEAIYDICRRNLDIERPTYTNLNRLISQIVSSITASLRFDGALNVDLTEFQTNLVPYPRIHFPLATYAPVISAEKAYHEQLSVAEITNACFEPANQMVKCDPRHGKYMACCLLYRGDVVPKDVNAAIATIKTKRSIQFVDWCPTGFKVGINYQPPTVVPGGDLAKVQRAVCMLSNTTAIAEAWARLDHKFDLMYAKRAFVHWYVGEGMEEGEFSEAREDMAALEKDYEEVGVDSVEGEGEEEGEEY
Sequence of bovine tubulin (Q6B856 whole entry): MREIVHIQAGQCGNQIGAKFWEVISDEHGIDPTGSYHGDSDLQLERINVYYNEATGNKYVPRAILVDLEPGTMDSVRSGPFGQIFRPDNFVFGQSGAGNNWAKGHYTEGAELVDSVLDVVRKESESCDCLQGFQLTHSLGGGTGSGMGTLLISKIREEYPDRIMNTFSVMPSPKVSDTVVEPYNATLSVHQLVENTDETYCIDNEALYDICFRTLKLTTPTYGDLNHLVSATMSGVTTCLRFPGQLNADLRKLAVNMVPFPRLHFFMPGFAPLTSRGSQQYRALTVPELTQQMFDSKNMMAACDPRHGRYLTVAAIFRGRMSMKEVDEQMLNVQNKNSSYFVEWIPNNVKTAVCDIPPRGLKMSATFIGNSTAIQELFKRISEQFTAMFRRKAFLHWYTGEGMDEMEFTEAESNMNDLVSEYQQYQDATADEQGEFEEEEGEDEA
Sequence of human topoisomerase II (P11388 whole entry): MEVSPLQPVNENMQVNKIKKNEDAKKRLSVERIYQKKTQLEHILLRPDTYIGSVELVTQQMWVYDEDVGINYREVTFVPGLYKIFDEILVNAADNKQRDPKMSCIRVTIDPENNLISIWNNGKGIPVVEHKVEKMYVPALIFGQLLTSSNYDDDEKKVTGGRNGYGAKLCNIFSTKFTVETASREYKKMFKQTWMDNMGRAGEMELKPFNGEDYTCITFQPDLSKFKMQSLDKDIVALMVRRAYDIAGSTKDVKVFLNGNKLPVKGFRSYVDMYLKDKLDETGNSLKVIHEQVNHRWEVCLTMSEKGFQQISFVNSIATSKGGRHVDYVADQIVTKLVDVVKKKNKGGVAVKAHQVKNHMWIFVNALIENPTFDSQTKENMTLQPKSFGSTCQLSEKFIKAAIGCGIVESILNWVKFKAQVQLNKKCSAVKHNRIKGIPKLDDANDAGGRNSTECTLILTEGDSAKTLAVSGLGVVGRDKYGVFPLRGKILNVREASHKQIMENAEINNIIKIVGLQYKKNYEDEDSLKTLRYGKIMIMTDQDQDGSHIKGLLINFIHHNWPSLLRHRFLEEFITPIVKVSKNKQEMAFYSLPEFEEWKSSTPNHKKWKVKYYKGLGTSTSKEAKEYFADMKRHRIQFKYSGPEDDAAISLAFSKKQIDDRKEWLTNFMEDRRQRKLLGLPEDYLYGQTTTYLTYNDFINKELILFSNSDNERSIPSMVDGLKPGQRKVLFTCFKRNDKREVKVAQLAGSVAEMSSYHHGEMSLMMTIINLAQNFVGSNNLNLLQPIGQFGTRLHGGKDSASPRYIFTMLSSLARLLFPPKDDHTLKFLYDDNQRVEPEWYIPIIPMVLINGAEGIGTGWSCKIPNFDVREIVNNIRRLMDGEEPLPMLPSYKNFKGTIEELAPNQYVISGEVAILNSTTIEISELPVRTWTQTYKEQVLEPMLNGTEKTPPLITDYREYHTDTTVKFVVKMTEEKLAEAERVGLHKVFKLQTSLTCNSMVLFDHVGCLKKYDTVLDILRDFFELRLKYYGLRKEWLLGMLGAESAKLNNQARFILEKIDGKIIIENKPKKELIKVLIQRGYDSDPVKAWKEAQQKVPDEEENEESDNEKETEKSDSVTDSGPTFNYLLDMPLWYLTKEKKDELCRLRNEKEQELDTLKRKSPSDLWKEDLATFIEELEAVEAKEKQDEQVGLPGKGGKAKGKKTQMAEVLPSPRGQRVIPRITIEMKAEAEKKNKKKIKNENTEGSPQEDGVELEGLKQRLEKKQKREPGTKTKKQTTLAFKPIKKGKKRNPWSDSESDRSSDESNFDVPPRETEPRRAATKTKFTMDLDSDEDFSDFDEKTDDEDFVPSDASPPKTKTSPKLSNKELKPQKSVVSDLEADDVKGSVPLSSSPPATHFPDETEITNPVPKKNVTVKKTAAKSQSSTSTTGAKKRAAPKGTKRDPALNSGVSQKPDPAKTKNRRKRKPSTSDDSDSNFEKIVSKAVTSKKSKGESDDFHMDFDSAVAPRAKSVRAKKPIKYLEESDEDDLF
Sequence of human DNA topoisomerase II (P11388 whole entry): as above

`CC(=O)O[C@H]1C(=O)[C@@]2(C)[C@H]([C@H](OC(=O)c3ccccc3)[C@]3(O)C[C@H](OC(=O)[C@H](O)[C@@H](NC(=O)c4ccccc4)c4ccccc4)C(C)=C1C3(C)C)[C@]1(OC(C)=O)CO[C@@H]1C[C@@H]2O` [Paclitaxel, paclitaxel]: the EC50 in test [1] is 0.005 µg/mL (≈ 0.00586 µM); in the test with resistant line LT12/mdr it was 0.34 µg/mL (≈ 0.398 µM); with murine cell line L1210, 0.048 µg/mL (≈ 0.0562 µM); in test [2], greater than 3.16 µg/mL; in the test with murine cell line P388 it was 0.035 µg/mL (≈ 0.041 µM); in test [3] it was greater than 3.16 µg/mL. In addition, in the test with KB/HeLa cells, the EC50 is 26.9 nM. The “inhibition of topoisomerase II, kDNA decatenation” value in test [4] was “neither paclitaxel nor vincristine was observed to have any inhibitory effects”. Further, the “inhibition of topoisomerase II, pRYG DNA relaxation” value against human topoisomerase II is reported as “neither paclitaxel nor vincristine was observed to have any inhibitory effects”.
As for `O=C1c2c(O)ccc(O)c2C(=O)c2c(NCCNCCO)ccc(NCCNCCO)c21` [Mitoxantrone, mitoxantrone], the EC50 is 0.006 µg/mL (≈ 0.0135 µM) in test [1]; 3.1 µg/mL (≈ 6.97 µM) with resistant line LT12/mdr; 0.09 µg/mL (≈ 0.202 µM) in the test on murine cell line L1210; 2.1 µg/mL (≈ 4.72 µM) in test [2]; 0.053 µg/mL (≈ 0.119 µM) in the test with murine cell line P388; 0.608 µg/mL (≈ 1.37 µM) in test [3]. The EC50 in the test on KB/HeLa cells was found to be 25.3 nM.
Take `O=C(Nc1ccc2ncccc2c1)C(=S)c1cn(Cc2ccc(Cl)cc2)c2ccccc12` [Compound 11, 2-[1-(4-chlorobenzyl)-1H-indol-3-yl]-N-quinolin-6-yl-2-thioxoacetamide]: the EC50 in test [5] (Homo sapiens, HeLa) was 0.036 µg/mL (≈ 0.079 µM); in [6] (Homo sapiens, SK-OV-3, read-out: XTT proliferation assay, EC50, SKOV3), 0.029 µg/mL (≈ 0.0636 µM); in [7] (Homo sapiens), 0.036 µg/mL (≈ 0.079 µM); in test [8] (Homo sapiens), 0.057 µg/mL (≈ 0.125 µM); in test [1], 0.023 µg/mL (≈ 0.0504 µM); in the test on resistant line LT12/mdr, 0.054 µg/mL (≈ 0.118 µM). Besides, the EC50 in the test on murine cell line L1210 stood at 0.052 µg/mL (≈ 0.114 µM); in test [2] it was 0.067 µg/mL (≈ 0.147 µM); with murine cell line P388 it was 0.018 µg/mL (≈ 0.0395 µM); in test [3], 0.051 µg/mL (≈ 0.112 µM); in the test on KB/HeLa cells, 41.8 nM. At bovine tubulin, the “inhibitory effect on tubulin polymerization (in words)” value is recorded as “very potent inhibitory effect”.
Turning to `O=C(Nc1cccc2cnccc12)C(=O)c1cn(Cc2ccc(Cl)cc2)c2ccccc12` [Compound 13, 2-[l-(4-chlorobenzyl)-1H-indol-3-yl]-N-isoquinolin-5-yl-2-oxoacetamide], the “XTT proliferation assay, EC50, KB/HeLa” value in [5] (KB/HeLa) is greater than 3.16 µg/mL. Moreover, the “XTT proliferation assay, EC50, SKOV3” value in [6] (SKOV3) is greater than 3.16 µg/mL. In test [7], the “XTT proliferation assay, EC50, SF-268” value is greater than 3.16 µg/mL. Besides, in [8], the “XTT proliferation assay, EC50, NCI-H460” value is greater than 3.16 µg/mL. Besides, at bovine tubulin, the “inhibitory effect on tubulin polymerization (in words)” value is on record as “do not exert any effect”.
